For nine molecules, Dmax, remaining activity and DC50 results are on record in patent US11787785B2 (NOVARTIS AG, priority 2021, dated 2023).

The structures appear in SMILES notation.

The experiment concerns the target T1, WIZ protein (HiBit-WIZ fusion protein) (Homo sapiens, UniProt O95785+Q96SW2).
T1 construct: expressed in transfected cells
Description: Quantification of WIZ protein levels in HiBit tag fusion protein assay (WIZ HiBit assay in 293T cells). It is filed as cell-based. To be noted: for Dmax at 25 µM / remaining activity at 25 µM: HEK-293T, 293T cells; for Dmax at 25 µM: 100 − Amax, read-out: % degradation of WIZ (100 − Amax); for remaining activity at 25 µM: DMSO-normalized, curve-fitted percentage of WIZ-HiBit remaining at 25 uM, read-out: WIZ Amax; for DC50: WIZ HiBit assay in 293T cells, 10-point, 5-fold dose response, highest concentration 25 μM, about 18 hours, read-out: WIZ AC50. In short, it runs like this: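 Luminescence after LgBit complementation quantified remaining HiBit-WIZ in lysates of single-copy stable 293T lines. Cells dosed ~18 h at 37 °C with 10-point, 5-fold dilutions (highest 25 μM); DMSO set to 100%, fitted curve gave % remaining at 25 μM (Amax).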
On the technique in general: With HiBiT, luminescence reflects the tagged protein that the partner subunit can reach.

T1 sequence (O95785 whole entry, the tested form may be a part): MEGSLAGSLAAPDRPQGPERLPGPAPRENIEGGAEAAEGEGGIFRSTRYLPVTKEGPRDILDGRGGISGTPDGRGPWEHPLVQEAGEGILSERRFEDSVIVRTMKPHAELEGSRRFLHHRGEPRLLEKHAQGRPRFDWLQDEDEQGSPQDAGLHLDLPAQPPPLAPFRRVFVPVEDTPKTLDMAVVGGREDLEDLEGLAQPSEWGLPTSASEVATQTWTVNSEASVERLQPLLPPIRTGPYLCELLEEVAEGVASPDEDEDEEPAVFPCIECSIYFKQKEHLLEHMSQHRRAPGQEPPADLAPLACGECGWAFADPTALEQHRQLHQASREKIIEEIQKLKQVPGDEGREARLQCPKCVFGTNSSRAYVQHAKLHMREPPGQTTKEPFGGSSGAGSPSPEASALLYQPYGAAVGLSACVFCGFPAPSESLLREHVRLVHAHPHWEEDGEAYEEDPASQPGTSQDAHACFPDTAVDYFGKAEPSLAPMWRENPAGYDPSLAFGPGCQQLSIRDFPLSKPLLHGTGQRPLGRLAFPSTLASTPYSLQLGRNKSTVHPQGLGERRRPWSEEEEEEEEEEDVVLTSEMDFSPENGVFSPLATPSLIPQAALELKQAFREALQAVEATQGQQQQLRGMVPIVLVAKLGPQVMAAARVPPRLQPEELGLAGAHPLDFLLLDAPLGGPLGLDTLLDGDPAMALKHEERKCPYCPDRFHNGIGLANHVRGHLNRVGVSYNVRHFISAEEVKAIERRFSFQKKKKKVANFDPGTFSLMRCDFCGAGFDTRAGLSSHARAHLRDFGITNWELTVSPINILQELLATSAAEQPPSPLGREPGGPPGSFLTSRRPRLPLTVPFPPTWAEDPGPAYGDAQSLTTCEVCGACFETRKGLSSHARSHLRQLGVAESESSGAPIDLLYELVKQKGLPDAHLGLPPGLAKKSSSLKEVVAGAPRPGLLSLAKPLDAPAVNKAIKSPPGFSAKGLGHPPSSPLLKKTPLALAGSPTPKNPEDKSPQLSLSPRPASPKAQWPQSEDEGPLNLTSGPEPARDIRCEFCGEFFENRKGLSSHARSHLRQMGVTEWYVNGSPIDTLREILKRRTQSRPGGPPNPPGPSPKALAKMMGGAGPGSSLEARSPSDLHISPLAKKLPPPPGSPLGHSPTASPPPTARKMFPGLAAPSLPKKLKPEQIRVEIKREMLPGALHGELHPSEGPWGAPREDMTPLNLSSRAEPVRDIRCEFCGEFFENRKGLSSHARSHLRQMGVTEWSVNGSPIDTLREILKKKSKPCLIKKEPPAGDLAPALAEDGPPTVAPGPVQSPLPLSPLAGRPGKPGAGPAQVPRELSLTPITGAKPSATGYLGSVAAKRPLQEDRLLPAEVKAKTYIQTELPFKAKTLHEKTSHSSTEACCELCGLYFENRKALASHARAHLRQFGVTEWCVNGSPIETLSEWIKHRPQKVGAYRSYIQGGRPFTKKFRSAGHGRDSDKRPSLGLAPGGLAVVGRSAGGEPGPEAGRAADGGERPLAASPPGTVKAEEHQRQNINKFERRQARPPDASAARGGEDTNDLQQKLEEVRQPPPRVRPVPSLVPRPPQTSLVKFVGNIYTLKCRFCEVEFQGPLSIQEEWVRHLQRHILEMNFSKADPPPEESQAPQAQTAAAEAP
T1 sequence (Q96SW2 whole entry, the tested form may be a part): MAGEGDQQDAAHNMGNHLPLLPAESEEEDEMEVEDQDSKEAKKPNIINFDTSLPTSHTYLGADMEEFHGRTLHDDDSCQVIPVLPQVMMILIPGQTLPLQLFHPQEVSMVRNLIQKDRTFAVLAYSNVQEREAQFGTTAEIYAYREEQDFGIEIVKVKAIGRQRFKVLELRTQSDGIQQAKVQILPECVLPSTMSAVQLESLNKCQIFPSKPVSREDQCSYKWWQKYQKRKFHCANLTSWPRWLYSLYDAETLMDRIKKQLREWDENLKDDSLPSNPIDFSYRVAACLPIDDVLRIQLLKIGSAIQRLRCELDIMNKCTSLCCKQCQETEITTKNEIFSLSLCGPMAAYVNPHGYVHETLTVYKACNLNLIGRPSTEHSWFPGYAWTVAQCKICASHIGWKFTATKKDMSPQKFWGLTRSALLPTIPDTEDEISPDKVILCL
T1 sequence (Q16531 whole entry partner, the tested form may be a part): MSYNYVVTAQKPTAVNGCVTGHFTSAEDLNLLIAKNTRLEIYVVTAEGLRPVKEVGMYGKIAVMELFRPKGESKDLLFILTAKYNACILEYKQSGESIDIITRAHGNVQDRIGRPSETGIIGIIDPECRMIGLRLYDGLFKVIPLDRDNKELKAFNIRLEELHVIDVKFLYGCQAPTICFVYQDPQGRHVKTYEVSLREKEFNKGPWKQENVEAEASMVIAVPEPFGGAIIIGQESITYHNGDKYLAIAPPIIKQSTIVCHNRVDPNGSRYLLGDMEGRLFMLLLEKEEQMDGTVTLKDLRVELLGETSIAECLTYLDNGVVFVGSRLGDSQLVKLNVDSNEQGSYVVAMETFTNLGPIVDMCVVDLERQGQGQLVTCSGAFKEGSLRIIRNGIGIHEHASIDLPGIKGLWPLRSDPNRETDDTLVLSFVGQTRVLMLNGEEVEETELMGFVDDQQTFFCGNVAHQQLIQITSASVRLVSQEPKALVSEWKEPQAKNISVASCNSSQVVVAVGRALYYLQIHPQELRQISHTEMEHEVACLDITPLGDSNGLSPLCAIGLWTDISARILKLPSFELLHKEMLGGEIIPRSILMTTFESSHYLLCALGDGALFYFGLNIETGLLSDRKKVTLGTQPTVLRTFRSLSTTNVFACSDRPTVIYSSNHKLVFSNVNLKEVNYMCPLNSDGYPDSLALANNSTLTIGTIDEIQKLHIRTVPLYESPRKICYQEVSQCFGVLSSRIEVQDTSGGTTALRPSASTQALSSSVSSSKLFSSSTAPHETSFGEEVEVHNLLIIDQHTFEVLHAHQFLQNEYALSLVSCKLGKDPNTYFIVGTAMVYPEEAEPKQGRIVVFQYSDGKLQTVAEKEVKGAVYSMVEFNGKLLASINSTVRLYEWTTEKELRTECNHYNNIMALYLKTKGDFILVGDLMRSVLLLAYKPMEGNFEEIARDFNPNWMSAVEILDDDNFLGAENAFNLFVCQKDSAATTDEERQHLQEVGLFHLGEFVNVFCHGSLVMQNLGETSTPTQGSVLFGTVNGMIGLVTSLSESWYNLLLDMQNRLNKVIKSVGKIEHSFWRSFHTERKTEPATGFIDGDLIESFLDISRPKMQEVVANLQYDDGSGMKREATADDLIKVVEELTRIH

Regarding `C[C@H]1CN(Cc2ccn3ncc(N4CCC(=O)NC4=O)c3c2)CCN1C[C@H]1CCC(F)(F)C1` [Example 320, 1-(5-(((S)-4-(((S)-3,3-difluorocyclopentyl)methyl)-3-methylpiperazin-1-yl)methyl)pyrazolo[1,5-a]pyridin-3-yl)dihydropyrimidine-2,4(1H,3H)-dione], the Dmax at 25 µM turned out to be 78%, the remaining activity at 25 µM was 21% and the DC50 came to 18 nM.

As to `C[C@H]1CN(Cc2ccn3ncc(N4CCC(=O)NC4=O)c3c2)CCN1CC1CC1` [Example 321, (S)-1-(5-((4-(cyclopropylmethyl)-3-methylpiperazin-1-yl)methyl)pyrazolo[1,5-a]pyridin-3-yl)dihydropyrimidine-2,4(1H,3H)-dione], the Dmax at 25 µM was found to be 78%, the remaining activity at 25 µM is 22% and the DC50 stood at 67 nM.

As for `C[C@H]1CN(Cc2ccn3ncc(N4CCC(=O)NC4=O)c3c2)CCN1CC1(C)CCC1` [Example 322, (S)-1-(5-((3-methyl-4-((1-methylcyclobutyl)methyl)piperazin-1-yl)methyl)pyrazolo[1,5-a]pyridin-3-yl)dihydropyrimidine-2,4(1H,3H)-dione], the Dmax at 25 µM was 86%, the remaining activity at 25 µM came to 14% and the DC50 came to 31 nM.

For the molecule `C[C@H]1CN(Cc2ccn3ncc(N4CCC(=O)NC4=O)c3c2)CCN1C[C@H]1CC[C@H](C(F)(F)F)CC1` [Example 323, 1-(5-(((S)-3-methyl-4-(((1r,4S)-4-(trifluoromethyl)cyclohexyl)methyl)piperazin-1-yl)methyl)pyrazolo[1,5-a]pyridin-3-yl)dihydropyrimidine-2,4(1H,3H)-dione], the Dmax at 25 µM was 83%, the remaining activity at 25 µM was found to be 17% and the DC50 was 4 nM.

Turning to `C[C@H]1CN(Cc2ccn3ncc(N4CCC(=O)NC4=O)c3c2)CCN1CC1CCO1` (stereo partly drawn) [Example 324, 1-(5-(((3S)-3-methyl-4-(oxetan-2-ylmethyl)piperazin-1-yl)methyl)pyrazolo[1,5-a]pyridin-3-yl)dihydropyrimidine-2,4(1H,3H)-dione], the Dmax at 25 µM turned out to be 72%, the remaining activity at 25 µM worked out at 28% and the DC50 was found to be 108 nM.

In the case of `C[C@H]1CN(Cc2ccn3ncc(N4CCC(=O)NC4=O)c3c2)CCN1CC1CC2(COC2)C1` [Example 325, (S)-1-(5-((4-((2-oxaspiro[3.3]heptan-6-yl)methyl)-3-methylpiperazin-1-yl)methyl)pyrazolo[1,5-a]pyridin-3-yl)dihydropyrimidine-2,4(1H,3H)-dione], the Dmax at 25 µM was 82%, the remaining activity at 25 µM was 18% and the DC50 came out at 47 nM.

For the molecule `C[C@H]1CN(Cc2ccn3ncc(N4CCC(=O)NC4=O)c3c2)CCN1CC1CC2(C1)CC(F)(F)C2` [Example 326, (S)-1-(5-((4-((6,6-difluorospiro[3.3]heptan-2-yl)methyl)-3-methylpiperazin-1-yl)methyl)pyrazolo[1,5-a]pyridin-3-yl)dihydropyrimidine-2,4(1H,3H)-dione], the Dmax at 25 µM was found to be 87%, the remaining activity at 25 µM was found to be 13% and the DC50 worked out at 49 nM.

Take `C[C@H]1CN(Cc2ccn3ncc(N4CCC(=O)NC4=O)c3c2)CCN1CC(F)F` [Example 327, (S)-1-(5-((4-(2,2-difluoroethyl)-3-methylpiperazin-1-yl)methyl)pyrazolo[1,5-a]pyridin-3-yl)dihydropyrimidine-2,4(1H,3H)-dione]: the Dmax at 25 µM amounted to 54%, the remaining activity at 25 µM amounted to 46% and the DC50 was determined as 653 nM.

As to `COCC(F)(F)CN1CCN(Cc2ccn3ncc(N4CCC(=O)NC4=O)c3c2)C[C@@H]1C` [Example 328, (S)-1-(5-((4-(2,2-difluoro-3-methoxypropyl)-3-methylpiperazin-1-yl)methyl)pyrazolo[1,5-a]pyridin-3-yl)dihydropyrimidine-2,4(1H,3H)-dione], the Dmax at 25 µM is 52%, the remaining activity at 25 µM worked out at 48% and the DC50 turned out to be 338 nM.
